Laboratory results taken from patent US20030125311A1, “Compounds capable of binding with the cytoskeleton” (priority 2002, published 2003).
Counter-ions that a name gives are not always drawn.

Legend:
MT (Beef) = test: Index of competition with pregnenolone, MT (beef); format: binding; settings: Pregnenolone = 100%
Method: (§1) In trials of competition between pregnenolone and different steroids for the binding studied, 0.2 ml of cytosol is incubated with 100 nM of PREG [^3H] and a 1-, 10-, 100-, and 1,000-fold excess of non-radioactive steroid.

MAP-2c + Tubuline = target: T1, MAP-2c + Tubuline (Homo sapiens, UniProt P11137); test: Index of competition with pregnenolone, MAP-2c + tubulin; format: binding; settings: Pregnenolone = 100%
T1 sequence (P11137 1-471 isoform P11137-2): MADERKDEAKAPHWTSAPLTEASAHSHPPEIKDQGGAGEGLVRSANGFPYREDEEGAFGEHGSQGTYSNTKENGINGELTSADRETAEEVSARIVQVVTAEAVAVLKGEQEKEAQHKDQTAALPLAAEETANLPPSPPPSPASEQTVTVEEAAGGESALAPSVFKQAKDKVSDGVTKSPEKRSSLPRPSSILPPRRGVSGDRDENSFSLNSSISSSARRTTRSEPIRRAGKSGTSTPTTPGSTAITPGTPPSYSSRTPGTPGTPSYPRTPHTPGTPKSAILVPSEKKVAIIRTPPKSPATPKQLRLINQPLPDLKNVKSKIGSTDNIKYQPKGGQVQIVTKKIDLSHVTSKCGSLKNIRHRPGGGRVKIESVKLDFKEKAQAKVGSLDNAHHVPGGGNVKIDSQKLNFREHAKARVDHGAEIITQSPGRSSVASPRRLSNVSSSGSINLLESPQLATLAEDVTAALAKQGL
Method: as §1

Cytosol (Rat) = test: Index of competition with pregnenolone, cytosol (rat); format: binding; settings: Pregnenolone = 100%
Method: as §1

[1] = target: T2, microtubules reconstituted with purified tubulin and MAP2 (Bos taurus, UniProt A0A3Q1NAK9); test: Kinetics of assembling of microtubules (turbidity at 345 nm); format: biochemical, calf; settings: for effect on assembling of microtubules (absorbance at 345 nm): 500 nM steroid, 37° C., 15 min
T2 construct: from tissue; host or cells: calf brain
Method: This assembling is measured by monitoring the increases of turbidity with a UVICON® spectrophotometer (Kontron Instruments, Montigny-le-Bretonneux, France)
The microtubules are reconstituted in vitro with purified tubulin (1 mg/ml) and MAP2 (0.05 mg/ml) in buffer A.
The increase of absorbance is measured at 345 nm, at 37° C. and recorded every 30 sec. for 15 min.
The assembling of microtubules is measured either in the absence of steroids (-⋄-); or in the presence of 500 nM of steroid: PREG (- -), progesterone (-X-), estradiol (-V-); or in the presence, at the same time, of PREG and progesterone (-∘-) or of PREG and estradiol (-Δ-) each at a concentration of 500 nM.

[2] = system: rat brain cytosol binding sites of pregnenolone; test: Competition trials for PREG [3H] binding in brain cytosol; design: key to R.C.R. 50 (relative competition index): IC50(PREG)/IC50(competitor) ×100; PREG = 100; settings: for R.C.R. 50 (relative competition index): PREG = 100, 50% reduction of specific binding of 100 nM PREG [3H], mean±standard error, n=3
Method: as §1
To study the specificity of the binding of PREG [^3H], different steroids were used.
(§2) The relative competition index was determined as ratios of the concentrations of the competitor (in the […]) versus PREG causing a reduction of 50% of the specific binding of PREG [^3H]×100 (mean±standard error, n=3).

fetal microtubules = fetal microtubules (Rattus norvegicus, UniProt P15146); test: Competition for PREG [3H] binding to fetal microtubules (RCR); settings: PREG = 100
Method: as §1
The microtubules are prepared starting from calf brain or adult or fetal rat brain according to an assembly/disassembly method, as a function of the temperature, in vitro (12).
as §2
The binding of PREG [^3H] to microtubules prepared by polymerization/depolymerization cycles was determined.

MAP2-tubulin copolymers = MAP2-tubulin copolymers (Bos taurus, UniProt A0A3Q1NAK9); test: Competition for PREG [3H] binding to MAP2-tubulin copolymers (RCR); design: species or system calf; settings: for RCR: MAP2-tubulin copolymers, PREG = 100
Method: as §1, §2
Purified calf brain tubulin (90 μg/ml), MAP2 (45 μg/ml) or tau protein (25 μg/ml) is incubated with 100 nM of PREG [^3H], with or without a 1,000-fold excess of non-radioactive PREG.

[3] = system: binding sites of PREG [3H] in brain cytosol; test: Effects of hydrolytic enzymes on the binding of PREG [3H] in cytosol; design: species or system rat
Method: Proteinase K (Merck, Darmstadt, Germany) and Pronase® are dissolved at 1 mg/ml in TNM buffer containing 10 mM of Tris, 0.1M of NaCl, 3 mM of MgCl2 (pH 7.4). Deoxyribonuclease I and ribonuclease A are products of Sigma-Aldrich and are respectively adjusted to 100 IU/ml and 5 IU/ml. Phospholipase A2 (Roche Molecular Biochemicals) is diluted to 20 IU/ml in TNM.
1 ml of brain cytosol is incubated with 0.2 ml of an enzyme solution at 37° C. for 30 min. The binding activity is studied of samples (0.2 ml) which had undergone the enzyme treatment or control samples diluted with buffer only.
To study the effects of hydrolytic enzymes on the binding of PREG [^3H], samples of 1 ml of cytosol incubated with 0.2 ml of an enzyme solution at 37° C. for 30 min were used. The results obtained, expressed as % of the control incubation (cytosol diluted in a buffer) are reported in Table 1 (mean±standard error, n=3).

Cytosol (piglet) = test: Index of competition with pregnenolone, cytosol (piglet); format: binding; settings: Pregnenolone = 100%; cell marked piglet
Method: as §1

T2 sequence (A0A3Q1NAK9 1-1867): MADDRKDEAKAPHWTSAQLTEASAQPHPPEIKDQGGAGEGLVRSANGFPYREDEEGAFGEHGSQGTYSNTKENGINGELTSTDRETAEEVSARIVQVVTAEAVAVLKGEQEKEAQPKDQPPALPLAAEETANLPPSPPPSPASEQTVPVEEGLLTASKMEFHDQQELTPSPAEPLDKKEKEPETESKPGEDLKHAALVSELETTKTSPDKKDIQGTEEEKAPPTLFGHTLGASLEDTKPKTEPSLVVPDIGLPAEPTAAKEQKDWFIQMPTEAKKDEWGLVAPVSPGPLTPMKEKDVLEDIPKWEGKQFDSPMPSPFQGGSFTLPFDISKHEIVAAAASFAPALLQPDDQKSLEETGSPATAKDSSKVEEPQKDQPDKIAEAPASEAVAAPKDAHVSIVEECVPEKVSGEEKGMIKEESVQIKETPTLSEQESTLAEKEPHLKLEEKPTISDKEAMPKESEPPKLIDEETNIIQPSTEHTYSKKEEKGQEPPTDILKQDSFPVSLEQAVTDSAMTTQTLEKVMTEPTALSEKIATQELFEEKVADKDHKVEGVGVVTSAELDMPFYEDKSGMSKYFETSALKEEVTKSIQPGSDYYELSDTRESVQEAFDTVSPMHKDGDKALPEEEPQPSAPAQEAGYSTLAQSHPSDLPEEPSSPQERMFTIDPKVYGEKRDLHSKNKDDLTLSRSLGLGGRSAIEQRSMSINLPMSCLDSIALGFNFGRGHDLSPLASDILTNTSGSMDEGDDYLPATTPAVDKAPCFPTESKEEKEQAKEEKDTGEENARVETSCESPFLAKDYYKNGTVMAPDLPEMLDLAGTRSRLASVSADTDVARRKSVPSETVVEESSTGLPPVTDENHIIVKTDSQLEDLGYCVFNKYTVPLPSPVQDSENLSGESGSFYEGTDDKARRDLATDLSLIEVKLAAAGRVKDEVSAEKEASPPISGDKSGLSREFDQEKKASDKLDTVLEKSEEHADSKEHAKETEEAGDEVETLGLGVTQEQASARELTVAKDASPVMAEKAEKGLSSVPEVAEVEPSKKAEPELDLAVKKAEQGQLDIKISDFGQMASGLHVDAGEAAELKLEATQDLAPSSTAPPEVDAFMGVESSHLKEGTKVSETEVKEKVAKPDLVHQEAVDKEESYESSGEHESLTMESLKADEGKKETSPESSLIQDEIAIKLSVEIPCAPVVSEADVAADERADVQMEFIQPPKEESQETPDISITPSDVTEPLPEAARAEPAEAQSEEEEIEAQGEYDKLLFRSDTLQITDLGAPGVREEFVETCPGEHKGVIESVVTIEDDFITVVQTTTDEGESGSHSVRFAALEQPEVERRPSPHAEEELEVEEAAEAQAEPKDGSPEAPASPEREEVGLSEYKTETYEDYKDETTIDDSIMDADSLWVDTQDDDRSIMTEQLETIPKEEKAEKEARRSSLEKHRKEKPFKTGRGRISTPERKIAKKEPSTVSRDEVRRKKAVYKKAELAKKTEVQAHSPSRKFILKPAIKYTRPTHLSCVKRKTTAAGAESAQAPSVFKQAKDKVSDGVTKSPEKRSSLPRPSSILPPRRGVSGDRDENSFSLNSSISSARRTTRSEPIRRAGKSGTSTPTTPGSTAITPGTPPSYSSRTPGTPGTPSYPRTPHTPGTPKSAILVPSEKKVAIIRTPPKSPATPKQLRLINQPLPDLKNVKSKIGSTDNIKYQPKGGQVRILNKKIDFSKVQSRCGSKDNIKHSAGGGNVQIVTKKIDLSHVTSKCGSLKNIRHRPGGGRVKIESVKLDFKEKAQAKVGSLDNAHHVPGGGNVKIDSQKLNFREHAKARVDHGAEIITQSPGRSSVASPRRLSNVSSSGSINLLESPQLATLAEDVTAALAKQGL
Chain of MAP2-tubulin copolymers (A0A3Q1NAK9 1-1867): as above
Chain of fetal microtubules (P15146 whole entry): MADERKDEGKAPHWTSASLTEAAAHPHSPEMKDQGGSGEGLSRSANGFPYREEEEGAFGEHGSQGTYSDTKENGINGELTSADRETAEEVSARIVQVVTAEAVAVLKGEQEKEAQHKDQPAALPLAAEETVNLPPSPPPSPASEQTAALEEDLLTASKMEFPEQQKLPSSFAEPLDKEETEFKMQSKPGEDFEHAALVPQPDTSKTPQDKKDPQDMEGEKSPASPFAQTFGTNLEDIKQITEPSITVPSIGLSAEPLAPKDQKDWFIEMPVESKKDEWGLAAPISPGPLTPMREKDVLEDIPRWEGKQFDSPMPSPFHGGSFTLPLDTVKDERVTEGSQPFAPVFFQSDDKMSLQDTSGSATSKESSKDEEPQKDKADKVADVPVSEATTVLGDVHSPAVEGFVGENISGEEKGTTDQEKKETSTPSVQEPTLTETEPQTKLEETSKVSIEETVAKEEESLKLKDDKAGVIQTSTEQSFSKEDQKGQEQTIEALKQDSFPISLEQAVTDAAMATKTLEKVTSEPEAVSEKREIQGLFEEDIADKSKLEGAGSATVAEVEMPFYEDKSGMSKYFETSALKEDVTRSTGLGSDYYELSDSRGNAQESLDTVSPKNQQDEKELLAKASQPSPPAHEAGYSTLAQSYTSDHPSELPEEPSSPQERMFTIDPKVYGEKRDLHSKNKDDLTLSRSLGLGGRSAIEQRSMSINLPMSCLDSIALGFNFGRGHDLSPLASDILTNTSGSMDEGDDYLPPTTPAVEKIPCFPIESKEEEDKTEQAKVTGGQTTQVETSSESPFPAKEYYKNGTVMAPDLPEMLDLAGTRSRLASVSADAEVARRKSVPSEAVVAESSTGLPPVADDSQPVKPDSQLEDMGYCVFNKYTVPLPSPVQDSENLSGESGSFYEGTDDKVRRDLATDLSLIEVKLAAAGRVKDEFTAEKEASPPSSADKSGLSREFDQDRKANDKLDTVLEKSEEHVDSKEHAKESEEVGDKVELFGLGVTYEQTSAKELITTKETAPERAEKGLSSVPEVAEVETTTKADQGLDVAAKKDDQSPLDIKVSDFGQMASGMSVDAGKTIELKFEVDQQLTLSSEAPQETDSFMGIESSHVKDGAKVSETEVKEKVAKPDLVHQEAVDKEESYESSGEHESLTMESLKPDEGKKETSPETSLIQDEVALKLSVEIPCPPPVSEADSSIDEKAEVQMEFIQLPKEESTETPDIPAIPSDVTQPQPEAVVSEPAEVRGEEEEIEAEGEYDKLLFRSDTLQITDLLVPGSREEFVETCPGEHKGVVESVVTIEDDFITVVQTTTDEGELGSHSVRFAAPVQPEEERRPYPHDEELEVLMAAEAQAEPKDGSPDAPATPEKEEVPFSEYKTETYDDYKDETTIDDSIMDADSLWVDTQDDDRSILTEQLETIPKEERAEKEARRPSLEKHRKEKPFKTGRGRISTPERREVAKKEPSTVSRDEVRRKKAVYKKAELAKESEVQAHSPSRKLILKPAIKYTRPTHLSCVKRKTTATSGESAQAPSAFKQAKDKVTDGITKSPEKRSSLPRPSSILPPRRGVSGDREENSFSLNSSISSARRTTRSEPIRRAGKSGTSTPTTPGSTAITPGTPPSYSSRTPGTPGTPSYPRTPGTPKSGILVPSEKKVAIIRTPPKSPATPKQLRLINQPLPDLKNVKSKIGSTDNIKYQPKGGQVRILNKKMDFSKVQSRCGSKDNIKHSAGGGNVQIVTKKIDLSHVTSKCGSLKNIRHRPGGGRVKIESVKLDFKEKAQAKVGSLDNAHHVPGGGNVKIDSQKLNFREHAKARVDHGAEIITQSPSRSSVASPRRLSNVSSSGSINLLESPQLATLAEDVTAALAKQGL

For `CC(=O)C1CCC2C3CC=C4CC(OS(=O)(=O)c5ccc(C)cc5)CCC4(C)C3CCC12C` (stereo not drawn) [PREG Tosylate], the “Index of Competition, MT (Beef)” value (MT (Beef)) was 121%, the “Index of Competition, MAP-2c + Tubuline” value (MAP-2c + Tubuline) was 129% and the “Index of Competition, Cytosol (Rat)” value (Cytosol (Rat)) was 107%.
`C[C@H](O)C1CCC2C3CCC4CC(O)CCC4(C)C3CCC21C` (stereo partly drawn) [5a-Pregnama 3β, 20a-diol] was tested, and the “Index of Competition, MT (Beef)” value (MT (Beef)) was 96% and the “Index of Competition, Cytosol (Rat)” value (Cytosol (Rat)) was 100%.
In the case of `C[C@]12CC[C@@H]3c4ccc(O)cc4CC[C@H]3[C@@H]1CC[C@@H]2O` [Estradiol], the “effect on assembling of microtubules (absorbance at 345 nm)” value (“effect on assembling of microtubules” below) [1] is reported as “inactive”.
In the case of `CC(=O)C1CCC2C3CC=C4CC(OS(=O)(=O)O)CCC4(C)C3CCC12C` (stereo not drawn) [Preqnenolone sulfate, pregnenolone sulfate], the “competition for the binding of PREG [3H] (in words)” value (from here on “competition for the binding of PREG”) [2] is reported as “best competitors”, the “R.C.R. 50 (relative competition index)” value [2] is reported as 78.8 ± 7.0 and the RCR (fetal microtubules) is reported as 78.8. The RCR (MAP2-tubulin copolymers) was 91.5 and the “effect on assembling of microtubules” value [1] was “effects similar to those of progesterone”.
For `CC(=O)C1CC=C2C3CC=C4CC(O)CCC4(C)C3CCC21C` (stereo not drawn) [3β-OH-5, 14 Preqnadiene-20-one], the “Index of Competition, MT (Beef)” value (MT (Beef)) was 95% and the “Index of Competition, Cytosol (Rat)” value (Cytosol (Rat)) was 102%.
`CC(=O)[C@@]1(O)CC[C@H]2[C@@H]3CC=C4C[C@@H](O)CC[C@]4(C)[C@H]3CC[C@@]21C` [17α-hydroxy-pregnenolone] was tested, and the “R.C.R. 50 (relative competition index)” value [2] was 0.85.
In the case of `C[C@]12CC[C@H]3[C@@H](CCC4=CC(=O)CC[C@@]43C)[C@@H]1CC[C@@H]2O` [Testosterone, reference compound], the RCR (fetal microtubules) is reported as 5.6 and the RCR (MAP2-tubulin copolymers) is reported as 2.3.
Phospholipase A2 [reference compound] was tested, and the “% of Control (binding of PREG [3H])” value ([3]; cytosol incubated with enzyme at 37° C. for 30 min, mean±standard error, n=3) was 85.0 ± 7.3% and the “effect on binding sites of PREG [3H] (in words)” value ([3]; enzyme treatment of cytosol) was “no significant effect”.
With `CC(=O)[C@H]1CC[C@H]2[C@@H]3CC[C@H]4C[C@@H](O)CC[C@]4(C)[C@H]3CC[C@]12C` [3β-hydroxy-5α-pregnane 20-one, 3β-hydroxy-5α-pregnane-20-one] the “competition for the binding of PREG” value [2] was “effective competitor”, the “times less active than PREG as competitor” value [2] was 5 times and the “R.C.R. 50 (relative competition index)” value [2] was 18.4 ± 4.0.
In the case of `[2H]OC1CCC2(C)C(=CCC3C2CCC2(C)C3CC(C)C2C(C)=O)C1` (stereo not drawn) [PREG-16β-methyl], the “Index of Competition, MT (Beef)” value (MT (Beef)) is reported as 83 (beef) %, the “Index of Competition, MAP-2c + Tubuline” value (MAP-2c + Tubuline) is reported as 97% and the “Index of Competition, Cytosol (Rat)” value (Cytosol (Rat)) is reported as 63%.
For `CC(=O)[C@H]1CC[C@H]2[C@@H]3CCC4=CC(=O)CC[C@]4(C)[C@H]3CC[C@]12C` [Progesterone], the “competition for the binding of PREG” value [2] was “best competitors”, the “R.C.R. 50 (relative competition index)” value [2] was 72.1 ± 17.7 and the RCR (fetal microtubules) was 72.1. The “binding to MAP2 (in words)” value (MAP2-tubulin copolymers) was “affinity for MAP2 of the same order as that of PREG”, the RCR (MAP2-tubulin copolymers) was 81.3 and the “effect on assembling of microtubules” value [1] was “without effect”. For the same compound, the “effect on PREG-stimulated assembly of microtubules” value ([1]; with PREG, each at 500 nM) was “counteracts the stimulative effect of PREG on the assembly of microtubules”.
With `CC(=O)OCC(=O)[C@H]1CC[C@H]2[C@@H]3CC=C4C[C@@H](O)CC[C@]4(C)[C@H]3CC[C@]12C` [3β-OH-Pregna-5-ene-20-one-21-acetoxy] the “Index of Competition, MT (Beef)” value (MT (Beef)) was 107% and the “Index of Competition, Cytosol (piglet)” value (Cytosol (piglet)) was 80 (piglet) %.
With `C[C@]12CC[C@H](O)CC1=CC[C@@H]1[C@@H]2CC[C@]2(C)C(=O)CC[C@@H]12` [Dehydroepiandrosterone] the RCR (MAP2-tubulin copolymers) was 2.3.
With `[2H]OC1CCC2(C)C(=CCC3C2CCC2(C)C3CCC2[C@H](C)O)C1` (stereo partly drawn) [Δ5-pregnene-3β.20α-diol, Δ5-pregnene-3β, 20α-diol] the “Index of Competition, MT (Beef)” value (MT (Beef)) was 100 (beef) %, the “competition for the binding of PREG” value [2] was “best competitors” and the “R.C.R. 50 (relative competition index)” value [2] was 68.4 ± 15.3. The “Index of Competition, Cytosol (Rat)” value (Cytosol (Rat)) was 87%.
In the case of `CC(=O)C1[C@H](C)CC2C3CC=C4CC(O)CCC4(C)C3CCC21C` (stereo partly drawn) [PREG-16a-methyl], the “Index of Competition, MT (Beef)” value (MT (Beef)) is reported as 88% and the “Index of Competition, Cytosol (Rat)” value (Cytosol (Rat)) is reported as 80%.
`CC(C)CCC[C@@H](C)[C@H]1CC[C@H]2[C@@H]3CC=C4C[C@@H](O)CC[C@]4(C)[C@H]3CC[C@]12C` [Cholesterol] was tested, and the “R.C.R. 50 (relative competition index)” value [2] was 0.02.
For `CC(=O)[C@@]1(O)CC[C@H]2[C@@H]3CCC4=CC(=O)CC[C@]4(C)[C@H]3CC[C@@]21C` [17α-hydroxy-progesterone], the “R.C.R. 50 (relative competition index)” value [2] was 0.79.
